In a compilation of properties of binary mixtures (doi:10.1016/j.fluid.2015.06.043):

Test: xn = mol fraction of the nth substance listed
Conditions: 101 kPa

CC[n+]1ccccc1.O=S(=O)([N-]S(=O)(=O)C(F)(F)F)C(F)(F)F + O
viscosity [mPa·s]
Conditions | 283.15 K | 293.15 K | 298.15 K | 303.15 K | 313.15 K | 333.15 K | 343.15 K | 353.15 K
x2 = 0.0043 | 78.6 | 49.9 | 40.1 | 33.3 | 24 | 13.7 | 10.88 | –
x2 = 0.087 | 64.3 | 41.7 | – | 28.4 | 20.6 | 12.15 | – | 7.92

O + CC[n+]1ccccc1.O=S(=O)([O-])C(F)(F)F
x2 = 0
Conditions | viscosity [mPa·s]
298.15 K | 0.89
303.15 K | 0.8
313.15 K | 0.65
333.15 K | 0.47
343.15 K | 0.4

CC[n+]1ccccc1.O=S(=O)([O-])C(F)(F)F + O
viscosity [mPa·s]
Conditions | 293.15 K | 298.15 K | 303.15 K | 313.15 K | 323.15 K | 333.15 K | 343.15 K | 353.15 K
x1 = 0.067 | – | – | 1.9 | 1.5 | 1.22 | 1.02 | – | –
x1 = 0.183 | 5.3 | 4.6 | 4.03 | 3.16 | 2.55 | 2.1 | 1.76 | –
x1 = 0.498 | 17.7 | – | 13 | 9.96 | 7.86 | 6.34 | 5.24 | 4.41
x1 = 0.689 | 33.4 | 27.8 | 23.5 | – | 13.26 | 10.46 | – | 6.92
x1 = 0.893 | 65.7 | 53.2 | 43.7 | 30.8 | 22.5 | 17.1 | 13.4 | –
x1 = 1 | 75.2 | 60.6 | 48.8 | 33.8 | 24.5 | 18.2 | 14.05 | 11.13
